Reference: the NIST ThermoML archive (doi:10.1016/j.fluid.2010.02.030)
Numbers after ± are expanded uncertainties.

Settings: Liquid, Ebulliometric method (Recirculating still)

Row | vapor or sublimation pressure (328.08 K) [kPa] | vapor or sublimation pressure (336.1 K) [kPa] | vapor or sublimation pressure (343.41 K) [kPa] | vapor or sublimation pressure (350.44 K) [kPa] | vapor or sublimation pressure (355.65 K) [kPa] | vapor or sublimation pressure (360.57 K) [kPa] | vapor or sublimation pressure (364.39 K) [kPa] | vapor or sublimation pressure (368.05 K) [kPa] | vapor or sublimation pressure (371.04 K) [kPa] | vapor or sublimation pressure (383.15 K) [kPa] | vapor or sublimation pressure (387.74 K) [kPa] | vapor or sublimation pressure (400.11 K) [kPa] | vapor or sublimation pressure (408.87 K) [kPa] | vapor or sublimation pressure (416.75 K) [kPa] | vapor or sublimation pressure (422.84 K) [kPa] | vapor or sublimation pressure (428.53 K) [kPa] | vapor or sublimation pressure (433.42 K) [kPa] | vapor or sublimation pressure (437.83 K) [kPa] | vapor or sublimation pressure (442.22 K) [kPa] | SMILES
1 | 23.1 ± 0.4 | 31.4 ± 0.4 | 40.9 ± 0.4 | 52.1 ± 0.4 | 61.9 ± 0.4 | 72.6 ± 0.4 | 81.9 ± 0.4 | 91.6 ± 0.4 | 100.5 ± 0.5 | – | – | – | – | – | – | – | – | – | – | CCCCS [1-butanethiol]
2 | – | – | – | – | – | – | – | – | – | 16.9 ± 0.4 | 20.1 ± 0.4 | 30.3 ± 0.4 | 39.8 ± 0.4 | 50.3 ± 0.4 | 60 ± 0.4 | 70.3 ± 0.4 | 80.3 ± 0.4 | 90.4 ± 0.4 | 101.4 ± 0.4 | Cc1ccc(C)c(C)c1 [1,2,4-trimethylbenzene]
